Legend:
[1] = test system: mice subjected to restraint stress; assay: Porsolt test, oral co-treatment during restraint stress (Example 1, Experiment 2); type: in vivo, C57BL/6 mice; conditions: RS mice, cotinine 5 mg/kg, KO, or mix, vs stressed vehicle
Method: Mice (n=5-8/condition) were treated via oral during and after restraint stress continuously until euthanasia.
Mice received daily treatments with
2. Cotinine dissolved in PBS via oral (gavage, (5 mg/kg; Cot 0.5)
3. Krill oil (KO) via oral (5 mg/ml in PBS, 50 μl) continuously from the beginning of the restraint stress until euthanasia.
To induce chronic stress, the restraint stress paradigm was used as previously described. Mice are immobilized in 50 ml falcon plastic tubes that were attached to mouse cages. The immobilization proceeded during 6 h from 9:00 AM to 3:00 PM in absence of treatments. Tubes have holes in the opposite side of the tube to allow the animal breathing and urination. Mice were almost completely immobilized for 6 h/day for 21 days after which they were permitted freely to move, eat and drink.
This test is used to measure the antidepressant effects of drugs, and consists in placing each mouse in a transparent cylinder filled with water at room temperature (RT). After a brief period of strong activity, rodents adopt a characteristic immobile posture. The time mice spent immobile is a measure of depressive-like behavior. The immobility time will be recorded during a 15-min and a next day 5-min trial. The time spent by each mouse immobile will be recorded.

[2] = test system: mice subjected to fear conditioning; assay: Novel object recognition after fear conditioning (Example 1, Experiment 3); type: in vivo, C57BL/6 mice; conditions: FC mice, IN post-treatment
Method: Mice were treated via IN 2 hours after fear conditioning and continuously until euthanasia.
Mice (n=5-6/condition) received daily treatments with 1. PBS (phosphate buffer saline, pH 7.4) via intranasal (2×12 μl/nostril), 2. Cotinine dissolved in PBS via intranasal (Cot IN, 10 mg/ml, 2×12 μl/nostril); 3. Cotinine+krill oil both dissolved in PBS via intranasal (Cot IN, 10 mg/ml+KO, 48 mg/ml, 2×12 μl/nostril).
Contextual FC was performed as described. The conditioning chamber used is surrounded by a sound-attenuating box with a camera connected to freeze frame software (MED Associates Inc.), also equipped to provide a background white noise (72 dB). The conditioning chamber (33 cm×20 cm×22 cm) contains in one side a speaker and in the opposite slide has a 24V light. The chamber has a 36-bar insulated shock grid floor. […] Freezing behavior that is defined as the absence of all movement except the one needed for breathing was assessed using the FreezeView Software (MED Associates Inc.).
After a habituation step in the OF arena, each mouse was individually placed in the apparatus containing two identical objects located equidistant to each other (familiarization phase) and left to explore the objects for 5 min. […] The time exploring the two objects was recorded during 5 min. […]

[3] = test system: mice subjected to fear conditioning; assay: Contextual fear retention and extinction (Example 1, Experiment 3); type: in vivo, C57BL/6 mice
Text: Between trials, the chamber was sanitized with 70% ethanol and dried.

[4] = test system: restrained mice; assay: Forced swim test after chronic restraint stress (Example 2); type: in vivo, C57BL/6 male mice; conditions: IN cotinine post-treatment, p<0.01
Method: Mice between 2-3 months of age after one week of acclimatization were randomly divided into two groups. Stressed mice were subjected to restraint stress. Control (non-restrained) mice were allowed to move freely during this period. After the stress exposure period, mice were divided into three experimental groups: 1) Non-restrained mice treated with vehicle (PBS, pH 7.4) serving as unstressed controls (n=8); 2) Restrained mice (RS) treated with vehicle (n=8); 3), RS mice treated with 24 μl of a cotinine solution (10 mg/ml in PBS, pH 7.4) via intranasal route of administration (n=6). Treatments were administered daily until euthanasia. After two weeks of treatments mice were behaviorally tested and euthanized (FIG. 10) Intranasal delivery was performed as previously described (Hanson and Frey, 2007). Mice at 2-3 months of age were hand-restrained, positioned in a supine position, and administered two 12 μl drops of cotinine solution (10 mg/ml in PBS), or PBS alone, into both nares. Mice were given an extra 12 μl treatment drop if the mouse expelled out the solution. Mice were kept in the supine posture for 5 seconds after delivery to facilitate the delivery. The administration was performed daily until euthanasia. […] Mice were placed in a transparent cylinder filled with water at 25° C. for 5 min and behavior was recorded. […]

CN1C(=O)CC[C@H]1c1cccnc1 [Cotinine, (5S)-1-methyl-5-(3-pyridyl) pyrrolidin-2-one]
depressive-like behavior (freezing behavior) in the Porsolt test [1]: non-significant decrease in depressive-like behavior | number of entries to the new object area (NOR) ([2]; Cotinine p<0.05, Cotinine+KO p<0.01): higher number of entries to the new object area than PBS-treated FC mice | time exploring the new object (NOR) ([2]; both p<0.05): spent more time than PBS-treated FC mice | freezing in the contextual retention test (consolidation of fear memory) ([3]; IN treatment started 2 h after FC, test 24 h after FC): levels of freezing similar to control mice | freezing behavior during contextual fear extinction trials ([3]; daily IN treatment, daily 3 min re-exposure): significant enhancement of memory extinction on day 2 and 3 | day of maximal decrease in freezing during extinction ([3]; daily IN treatment, control mice day 5): 3 days | immobility in the forced swim test [4]: significantly lower than PBS-treated restrained mice
